Experiment [1] addresses T1, Human OX1 receptor (Homo sapiens (Human), UniProt O43613). Nature of the experiment: [3H]-radioligand binding assay, OX1. Conditions: competition binding, membranes of SF21 cells, Ki by Cheng-Prusoff. The source says: (§1) Cloning, Baculovirus generation, large-scale infection of SF21 cells and membrane preparation. Human OX1 or OX2 receptor were cloned into Invitrogen's (ThermoFisher Scientific, UK) Bac-to-Bac Baculovirus Expression System. P0 baculovirus was generated by transfecting SF9 cells with bacmid DNA using Cellfectin® II transfection reagent (ThermoFisher Scientific, UK, Catalog number 10362-100). Following P0 generation P1 virus was then generated ready for large scale infection and membrane preparation. SF21 cells were grown in expression medium ESF921 (Expression Systems, USA, catalog number 96-001-01) supplemented with 10% heat-inactivated FBS and 1% Pen/Strep and were infected at a cell density of 2.5×10^6 cells/mL and a multiplicity of infection of 1.0 for both human OX1R and OX2R. Incubation was carried out at over 48 h in a shaking incubator set at 27° C. The cell culture was then centrifuged at 2,500 rcf for 10 min at 4° C. The pellets were resuspended in cold PBS supplemented with Roche's Complete EDTA-free protease inhibitor cocktail tablets (Roche Applied Sciences, catalog number 05056489001), 1 mM PMSF and 1 mM EDTA. The resuspended cell paste was then centrifuged at 3,273 rcf for 12 min at 4° C. The supernatant was discarded and the pellet frozen at −80° C. The cell pellet from a 4 L culture was resuspended in buffer containing 50 mM HEPES pH 7.5, 150 mM NaCl, 8 Roche EDTA-Free protease inhibitor cocktail tablets and 1 mM PMSF. The suspension was left stirring at rt for 1 h and then homogenised for 90 s at 9,500 rpm using a VDI 25 (VWR, USA) homogeniser. The cells were then lysed using a Microfluidiser processor M-110L Pneumatic (Microfluidics, USA) at 60 PSI and membranes collected by ultracentrifugation at 204.7 k×g for 1 h. The supernatant was discarded and the pellet was resuspended and homogenised in 90 s at 9,500 rpm in 50 mL (25 mL for each 2 L culture) of buffer containing 50 mM Hepes pH 7.5, 150 mM NaCl, 3 Roche EDTA-free protease inhibitor cocktail tablets and 1 mM PMSF. The resulting membranes were then stored at −80° C.
(§2) [^3H]-radioligand binding assay. After thawing, membrane homogenates were resuspended in the binding buffer (8.5 mM HEPES, pH 7.4, 1.3 mM CaCl2, 1.2 mM MgSO4, 118 mM NaCl, 4.7 mM KCl, 4 mM NaHCO3, 1.2 mM KH2PO4, 11 mM glucose) to a final assay concentration of 6.4 μg (OX1) or 1.4 μg (OX2) protein per well. Saturation isotherms were determined by the addition of various concentrations (0-30 nM) of [^3H]-4-(2,6-difluoro-4-methoxybenzyl)-2-(5,6-dimethoxypyridin-3-yl)-2H-1,2,4-benzothiadiazin-3(4H)-one 1,1-dioxide (Christopher et al, MedChemComm., 2015, 6, 947-955) in a total reaction volume of 250 μL for 90 min at rt. At the end of the incubation, membranes were filtered onto a 96-well GF/B filter pre-incubated with 0.5% polyethylenimine, with a Tomtec cell harvester and washed 5 times with 0.5 mL distilled water. Non-specific binding (NSB) was measured in the presence of 3.33 μM [4-(5-chloro-1,3-benzoxazol-2-yl)-7-methyl-1,4-diazepan-1-yl][5-methyl-2-(2H-1,2,3-triazol-2-yl)phenyl]methanone (Wertz et al, Angew. Chem. Int. Ed., 2011, 50, 11511-11515). Radioactivity on the filter was counted (1 min) on a Microbeta radiometric plate counter (Perkin Elmer) after addition of 50 μL of scintillation fluid (LabLogic: Part #SG-BXX-14). […] IC50 values were derived from the inhibition curve and the equilibrium dissociation constant (Ki) values were calculated using the Cheng-Prusoff equation.

The target in experiment [2] is T1, Human OX1 receptor. As to the kind of experiment: IPone accumulation assay, CHO cells expressing OX1. The class given is cell-based. Conditions: antagonism of orexin A (EC80 ~20 nM)-induced inositol phosphate turnover, read-out: fpKb average OX1 (converted). The method, then:
Generation of CHO stable cell lines expressing the human OX1R and OX2R. Stable cell lines for the human OX1R and OX2R receptors were generated through the transfection of CHO cells using the transfection reagent Genejuice (Novagen number 70967) and cDNA coding for either the human OX1R or OX2R. Cells were cultured in Sigma Nutrient Mixture F-12 Ham media (catalog number N6658) supplemented with 10% heat-inactivated FBS. Forty-eight hours after transfection, cells were harvested and placed under geneticin selection by culturing in Sigma Nutrient Mixture F-12 Ham media supplemented with 10% heat-inactivated FBS and geneticin (ThermoFisher Catalog number: 10131035). Selection of the final stable clone for each receptor was made on the basis of receptor expression, assay signal to noise and robustness though increasing passage. Selected clones for the human OX1R and OX2R were then frozen down into liquid nitrogen using Cell Freezing Medium-DMSO (Sigma-Aldrich catalog number: C6164).
(§3) IPone accumulation assay. A CHO cell line stably expressing either human OX1 or OX2 receptor was used with the IPone HTRF assay kit (CisBio: Part #62IPAPEJ) to measure receptor activation. The assay was optimised to measure the ability (potency; fpKb) of antagonists to reduce agonist (orexin A)-induced inositol phosphate turnover. Briefly, cells were plated onto half area 96-well white walled plates at a density of 12,500 cells/well. Sixteen hours post-plating cell growth media was replaced with antagonist concentration-response curve diluted in stimulation buffer (supplied with the kit). Cells were incubated in a humidified incubator (37° C.) for 30 min before an EC80 challenge concentration (˜20 nM (OX1) and 40 nM (OX2)) of orexin A (Tocris catalogue number 1455). After 30 min stimulation in a humidified incubator (37° C.) the assay was terminated by the addition of detection mixture as per manufacturer's instructions. The concentration of compound which reduced orexin-A stimulated turnover of inositol phosphates by 50% (IC50) was calculated by fitting to a four parameter sigmoidal dose response curve. The IC50 values were converted to fpKB values using the orexin A pEC50 value estimated on each plate as well as the challenge concentration interpolated from the orexin A control curve.

The target in experiment [3] is T2, Human OX2 receptor (Homo sapiens (Human), UniProt O43614). As to the kind of experiment: [3H]-radioligand binding assay, OX2. Conditions: competition binding, membranes of SF21 cells, Ki by Cheng-Prusoff.
From the text: as §1, §2

The target of experiment [4] is T2, Human OX2 receptor. As to the kind of experiment: IPone accumulation assay, CHO cells expressing OX2. The class given is cell-based. Conditions: antagonism of orexin A (EC80 40 nM)-induced inositol phosphate turnover, read-out: fpKb average OX2 (converted). Here is the method: as §3, with “Generation of CHO stable cell lines expressing the human OX1R and OX2R. Stable cell lines for the human OX1R and OX2R receptors were generated through the transfection of CHO cells using the transfection reagent Genejuice (Novagen number 70967) and cDNA coding for either the human OX1R or OX2R. Cells were cultured in Sigma Nutrient Mixture F-12 Ham media (catalog number N6658) supplemented with 10% heat-inactivated FBS. Forty-eight hours after transfection, cells were harvested and placed under geneticin selection by culturing in Sigma Nutrient Mixture F-12 Ham media supplemented with 10% heat-inactivated FBS and geneticin (ThermoFisher Catalog number: 10131035). Selection of the final stable clone for each receptor was made on the basis of receptor expression, assay signal to noise and robustness though increasing passage. Selected clones for the human OX1R and OX2R were then frozen down into liquid nitrogen using Cell Freezing Medium-DMSO (Sigma-Aldrich catalog number: C6164). IPone accumulation” for “IPone accumulation”, “(CisBio: Part #62[…]) to measure” for “(CisBio: Part #62IPAPEJ) to measure”, “challenge concentration ( 20 nM (OX1)” for “challenge concentration (˜20 nM (OX1)”

T2 sequence (O43614 whole entry): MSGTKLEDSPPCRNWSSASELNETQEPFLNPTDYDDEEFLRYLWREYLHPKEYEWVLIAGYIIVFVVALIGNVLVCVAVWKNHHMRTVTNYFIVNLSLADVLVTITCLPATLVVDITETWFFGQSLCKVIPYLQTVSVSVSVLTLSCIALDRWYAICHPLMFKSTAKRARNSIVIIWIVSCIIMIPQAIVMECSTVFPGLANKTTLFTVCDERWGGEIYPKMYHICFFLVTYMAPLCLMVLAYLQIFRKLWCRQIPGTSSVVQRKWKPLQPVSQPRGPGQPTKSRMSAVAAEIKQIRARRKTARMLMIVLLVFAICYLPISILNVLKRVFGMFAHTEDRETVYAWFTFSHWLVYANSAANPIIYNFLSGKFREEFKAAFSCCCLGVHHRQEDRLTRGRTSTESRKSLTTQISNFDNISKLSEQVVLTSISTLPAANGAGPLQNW
T1 sequence (O43613 whole entry): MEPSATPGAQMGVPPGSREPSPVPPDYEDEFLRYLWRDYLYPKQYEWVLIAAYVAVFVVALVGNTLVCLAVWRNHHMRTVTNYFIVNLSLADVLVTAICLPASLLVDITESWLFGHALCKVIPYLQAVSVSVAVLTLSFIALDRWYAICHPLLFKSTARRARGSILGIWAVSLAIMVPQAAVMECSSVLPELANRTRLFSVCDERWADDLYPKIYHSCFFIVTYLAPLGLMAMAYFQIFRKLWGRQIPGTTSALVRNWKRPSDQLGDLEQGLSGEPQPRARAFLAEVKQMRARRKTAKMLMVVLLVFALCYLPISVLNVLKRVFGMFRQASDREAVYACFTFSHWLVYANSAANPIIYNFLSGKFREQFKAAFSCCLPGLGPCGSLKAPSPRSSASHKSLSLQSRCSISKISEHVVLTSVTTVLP

Take `CC(=O)Nc1ccc(-c2ncccn2)c(C(=O)N[C@H]2CCC[C@@H]2COc2ccc(F)cc2)c1F` [Example 2, 3-acetamido-2-fluoro-N-[(1S,2S)-2-[(4-fluorophenoxy)methyl]cyclopentyl]-6-pyrimidin-2-yl-benzamide]: the “pKi average OX1” value in experiment [1] is 7.7. The Kb in experiment [2] is 50.1 nM; in experiment [4] it was above 2510 nM. Besides, in experiment [3], the “pKi average OX2” value is 5.6.

Turning to `[2H]C([2H])(Oc1ccc(F)cc1)[C@H]1CCC[C@@H]1NC(=O)c1nc(NC(C)=O)ccc1-n1nccn1` [Example 8, 6-acetamido-N-[(1S,2S)-2-[dideuterio-(4-fluorophenoxy)methyl]cyclopentyl]-3-(triazol-2-yl)pyridine-2-carboxamide], the “pKi average OX1” value in experiment [1] turned out to be 8.4. Besides, the Kb is 15.8 nM in experiment [2] and above 794 nM in experiment [4]. For the same molecule, in experiment [3], the “pKi average OX2” value is 5.8.

In the case of `CC(=O)Nc1ccc(-c2ncccn2)c(C(=O)N[C@H]2CCC[C@@H]2COc2ccc(Cl)cc2)n1` [Example 15, 6-acetamido-N-[(1S,2S)-2-[(4-chlorophenoxy)methyl]cyclopentyl]-3-pyrimidin-2-yl-pyridine-2-carboxamide], the “pKi average OX1” value in experiment [1] is listed as 8.7. For the same molecule, the Kb in experiment [2] is 3.98 nM; in experiment [4], above 631 nM. The “pKi average OX2” value in experiment [3] is 6.2.

On to `CC(=O)Nc1ccc(-n2nccn2)c(C(=O)N[C@H]2CCC[C@@H]2COc2ccc(F)cc2)n1` [Example 3, 6-acetamido-N-[(1S,2S)-2-[(4-fluorophenoxy)methyl]cyclopentyl]-3-(triazol-2-yl)pyridine-2-carboxamide], for which, in experiment [1], the “pKi average OX1” value is 8.3. In addition, the Kb in experiment [2] is 20 nM; in experiment [4], 1260 nM. The “pKi average OX2” value in experiment [3] was 5.4.

Regarding `CC(=O)Nc1ccc(-n2nccn2)c(C(=O)N(C)[C@H]2CCC[C@@H]2COc2ccc(F)cc2)n1` [Example 5, 6-acetamido-N-[(1S,2S)-2-[(4-fluorophenoxy)methyl]cyclopentyl]-N-methyl-3-(triazol-2-yl)pyridine-2-carboxamide], in experiment [1], the “pKi average OX1” value is 8.5. The Kb in experiment [2] was 3.16 nM; in experiment [4], above 1000 nM. The “pKi average OX2” value in experiment [3] is given as 6.0.

Take `O=C(N[C@H]1CCC[C@@H]1COc1ccc(F)cc1)c1nc(NCCO)ccc1-n1nccn1` [Example 20, N-[(1S,2S)-2-[(4-fluorophenoxy)methyl]cyclopentyl]-6-(2-hydroxyethylamino)-3-(triazol-2-yl)pyridine-2-carboxamide]: in experiment [1], the “pKi average OX1” value is 8.4. Further, the Kb in experiment [2] was 7.94 nM; in experiment [4], above 501 nM. Besides, the “pKi average OX2” value in experiment [3] is 5.8.

As for `CC(=O)Nc1ccc(-n2nccn2)c(C(=O)N[C@H]2CCC[C@@H]2COc2ccc(F)c(F)c2)n1` [Example 9, 6-acetamido-N-[(1S,2S)-2-[(3,4-difluorophenoxy)methyl]cyclopentyl]-3-(triazol-2-yl)pyridine-2-carboxamide], the “pKi average OX1” value in experiment [1] is recorded as 8.2. For the same molecule, the Kb in experiment [2] was 25.1 nM; in experiment [4] it was above 200 nM. Besides, the “pKi average OX2” value in experiment [3] is reported as 5.9.

Consider `O=C(N[C@H]1CCC[C@@H]1COc1ccc(F)cc1)c1nc(NCC(F)F)ccc1-n1nccn1` [Example 19, 6-(2,2-difluoroethylamino)-N-[(1S,2S)-2-[(4-fluorophenoxy)methyl]cyclopentyl]-3-(triazol-2-yl)pyridine-2-carboxamide], for which the “pKi average OX1” value in experiment [1] was 8.8. The Kb in experiment [2] is 15.8 nM; in experiment [4], above 501 nM. In experiment [3], the “pKi average OX2” value was determined as 6.6.

For the molecule `COCC(=O)Nc1ccc(-c2ncccn2)c(C(=O)N[C@H]2CCC[C@@H]2COc2ccc(F)cc2)n1` [Example 16, N-[(1S,2S)-2-[(4-fluorophenoxy)methyl]cyclopentyl]-6-[(2-methoxyacetyl)amino]-3-pyrimidin-2-yl-pyridine-2-carboxamide], in experiment [1], the “pKi average OX1” value worked out at 7.7. The Kb in experiment [2] is 200 nM; in experiment [4] it was above 1000 nM. The “pKi average OX2” value in experiment [3] is below 5.1.

As for `CC(=O)Nc1cc(F)c(-n2nccn2)c(C(=O)N[C@H]2CCC[C@@H]2COc2ccc(F)cc2)c1` [Example 1, 5-acetamido-3-fluoro-N-[(1S,2S)-2-[(4-fluorophenoxy)methyl]cyclopentyl]-2-(triazol-2-yl)benzamide], in experiment [1], the “pKi average OX1” value is given as 9.0. For the same molecule, the Kb in experiment [2] is 0.794 nM; in experiment [4] it was above 63.1 nM. Besides, the “pKi average OX2” value in experiment [3] is listed as 7.3.

The values are drawn from US12240825B2, “Oxexin 1 receptor antagonists” (Heptares Therapeutics Limited, priority 2019, dated 2025).
